Measurements: US9345691B2, “Beta-lactam compounds for enhancing T cell-mediated immune responses” (STEM CELL MEDICINE LTD., priority 2011, dated 2016)
Entries after “also recorded” stand apart in the source; their conditions may differ.

Legend:
[1] = test system: NOD mice; assay: Autoimmune diabetes in NOD mice; format: in vivo, mouse
Method: NOD mice spontaneously develop diabetes mellitus similar to type I diabetes in humans. […] The mice were followed for the development of diabetes, marked by blood sugar above 300 mg/dl on 2 measurements.

[2] = test system: human CD3 T cells; assay: Pen 9 western blot of antibiotic-treated human T cells; format: cell-based; conditions: human T cells activated by mitogen in presence of the antibiotic
[3] = test system: CD4+ human T cells; assay: Real-time PCR verification of six genes; format: cell-based; conditions: same RNA as gene array; cefuroxime 50 μg/ml
Method: To verify the results of the gene array, we synthesized real-time PCR primers (designed with the LightCycler probe design software (Roche)). Real-time PCR of 6 selected genes was performed using a LightCycler (Roche, Basel, Switzerland). RNA was reverse transcribed to cDNA from 1 μg of total RNA, which was then subjected to quantitative RT-PCR performed essentially according to the manufacturer's instructions. Specific primer pairs were used to amplify specific genes in the presence of 3 mM MgCl2. PCR was performed in triplicate in a total volume of 20 μl of LightCycler HotStart DNA SYBR Green I mix (Roche) containing primer and 5 μl of cDNA. […] Denaturation was performed for 15 s at 95° C., annealing was performed in 60° C., and the extension was performed at 72° C. for 20 s, with fluorescence detection at 72° C. after each cycle. After the final cycle, melting point analyses of all samples were performed within the range of 62-95° C. with continuous fluorescence detection. […]
The Human Autoimmune and Inflammatory Response Gene Array (SuperArray Bioscience corporation, Frederick, Md., USA) was used for analysis of gene expression by the T cells. […] To verify the results detected by the gene array study, a panel of six genes was designed and tested by real-time PCR: CCR4, ACVR2, JAK1, STAT4, TLR2 and NFKBIE. […]

[4] = test system: experimental autoimmune encephalomyelitis (EAE) in rats; assay: Actively induced EAE; format: in vivo, rat; conditions: oral in drinking water from day 7 postinduction, daily dose 50 mg/kg, versus two control groups
[5] = test system: Adjuvant Arthritis (AA) in rats; assay: Adjuvant arthritis (AA); format: in vivo, rat; conditions: IP 5 mg (25 mg/kg) once every 2 or 3 days from day 12, versus non-injected control
Method: Heat-killed Mycobacterium tuberculosis (Mt) strain H37Ra (Difco) was finely ground using a pestle and mortar, and was suspended to a final concentration of 10 mg/ml in IFA. Test rats were injected at the base of the tail with a total of 100 μl of the Mt suspension. The day of AA induction was designated as day 0. Disease severity was assessed by direct observation of all four limbs in each animal. A relative score between 0 and 4 was assigned to each limb based on the degree of joint inflammation, redness, and deformity; thus, the maximum possible score for an individual animal was 16. The results are presented as the mean±SE of total score.
To test the effects of antibiotics in vivo, active experimental autoimmune encephalomyelitis (EAE) was induced in rats as described above, and the injected rats (4 per group) were treated with oral cefuroxime axetil in the drinking water from day 7 postinduction (“Oral T Cefurox.”). One 500 mg tablet was dissolved in 500 ml of drinking water. The daily dose was 50 mg/kg, in the range of therapeutic pediatric human doses. As a control, the intravenous cefuroxime sodium preparation, which is not absorbed into the circulation, was administered orally (“Oral inj. Cefurox.”). A second control group was given water without antibiotics (“Control”). […]

Compound | effect on type I diabetes ([1]; NOD mice) | incidence of diabetes ([1]; NOD mice at 5.7 months, SC weekly, ampicillin 1300 μg, ceftriaxone 675 μg per mouse) [%] | reactivity of Pen 9 antibody with lysates of treated T cells [2] | expression of CCR4, ACVR2, JAK1, STAT4, TLR2 and NFKBIE by real-time PCR [3] | severity of actively induced EAE [4] | arthritis scores [5]
CC1(C)S[C@@H]2[C@H](NC(=O)[C@H](N)c3ccccc3)C(=O)N2[C@H]1C(=O)O [ampicillin] | Inhibition of type I diabetes in NOD mice | 30 | did not bind | – | – | –
CO/N=C(\C(=O)N[C@@H]1C(=O)N2C(C(=O)O)=C(COC(N)=O)CS[C@H]12)c1ccco1 [cefuroxime] | – | – | – | suppressed | increases the severity of actively induced EAE | significantly more severe arthritis scores; also recorded: Exacerbation of adjuvant-induced arthritis
